Reference: patent US11590116B2 (THERAVANCE BIOPHARMA R&D IP, LLC, priority 2019, dated 2023)

Columns and labels:
[1] = system: TGF-β-stimulated SMAD3 phosphorylation in BEAS-2B cells; experiment: Cellular ALK5 potency assay, inhibition of TGF-β stimulated pSMAD3 formation in BEAS-2B cells; format: cell-based; conditions: Homo sapiens; inhibition of TGF-β stimulated pSMAD3 formation, BEAS-2B cells; read-out: BEAS2B pIC50 (converted)
Outline: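 AlphaLISA pSMAD3 read-out, beads incubated overnight. Human BEAS-2B cells: 1 h compound preincubation (37 °C, 5% CO2), then 30 min TGF-β at 10 ng/mL final, immediate lysis. Values are pIC50 relative to stimulated, compound-free baseline.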

[2] = target: T1, recombinant human ALK5 (TGF-βR1) protein (Homo sapiens, UniProt P36897); experiment: Biochemical ALK5 (TGF-βR1) assay to measure pKi (LANCE Ultra ULight kinase assay); conditions: apparent pKi from pIC50 by Cheng-Prusoff, read-out: ALK5 pKi (converted)
T1 construct: purchased Life Technologies PR9075A
T1 sequence (P36897 34-503): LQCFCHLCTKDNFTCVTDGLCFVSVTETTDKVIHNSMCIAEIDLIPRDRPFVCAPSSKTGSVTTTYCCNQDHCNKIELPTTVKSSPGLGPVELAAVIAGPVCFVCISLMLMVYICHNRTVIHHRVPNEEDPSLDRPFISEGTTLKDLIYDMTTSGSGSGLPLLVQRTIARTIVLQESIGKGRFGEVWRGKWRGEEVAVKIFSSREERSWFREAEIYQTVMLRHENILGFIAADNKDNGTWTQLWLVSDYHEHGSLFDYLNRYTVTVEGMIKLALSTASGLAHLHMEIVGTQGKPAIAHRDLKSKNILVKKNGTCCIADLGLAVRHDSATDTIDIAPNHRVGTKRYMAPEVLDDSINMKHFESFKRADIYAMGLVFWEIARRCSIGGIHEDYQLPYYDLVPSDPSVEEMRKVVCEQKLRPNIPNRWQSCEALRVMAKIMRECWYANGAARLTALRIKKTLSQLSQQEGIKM
Outline: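 Compounds (10 μM to 25 pM) were preincubated 60 min at room temperature with enzyme, then reactions were started with ATP (125 μM stock, 5× final) and run 60 min at 37 °C. EDTA-containing Eu-anti-phospho-Topo IIα (Thr1342) antibody stopped the reaction; TR-FRET read at 665 nm. pIC50 from 4-parameter fit, converted to pKi via Cheng-Prusoff.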

Ki [2] [nM] | SMILES | IC50 [1] [nM]
0.0398 to 0.316 | COC(=O)[C@H]1CN(c2cnc3ccc(-c4c[nH]nc4-c4cccc(C)n4)nc3c2)CCN1 [Compound 442, methyl (2R)-4-[6-[3-(6-methyl-2-pyridyl)-1H-pyrazol-4-yl]-1,5-naphthyridin-3-yl]piperazine-2-carboxylate] | 25.1 to 158
0.398 to 3.16 | Cc1cccc(-c2[nH]ncc2-c2ccc3ncc(C(=O)O[C@@H]4CCNC4)cc3n2)n1 [Compound 195, [(3R)-pyrrolidin-3-yl] 6-[5-(6-methyl-2-pyridyl)-1H-pyrazol-4-yl]-1,5-naphthyridine-3-carboxylate] | 25.1 to 158
0.0398 to 0.316 | Cc1cccc(-c2[nH]cnc2-c2ccc3ncc(C(=O)OC[C@@H]4CCCNC4)cc3c2)n1 [Compound 877, (R)-piperidin-3-ylmethyl 6-(5-(6-methylpyridin-2-yl)-1H-imidazol-4-yl)quinoline-3-carboxylate] | 25.1 to 158
< 0.0316 | Cc1cccc(-c2n[nH]cc2-c2ccc3ncc(-c4cnc5n4CCN5)cc3n2)n1 [Compound 681, 7-(6,7-dihydro-5H-imidazo[1,2-a]imidazol-3-yl)-2-[3-(6-methyl-2-pyridyl)-1H-pyrazol-4-yl]-1,5-naphthyridine] | 25.1 to 158
0.0398 to 0.316 | Cc1cccc(-c2[nH]cnc2-c2ccc3ncc(C4=CC[C@H](NC(=O)[C@@H]5CCC(=O)N5)CC4)cc3c2)n1 [Compound 764, (2S)-N-[(1R)-4-[6-[5-(6-methyl-2-pyridyl)-1H-imidazol-4-yl]-3-quinolyl]cyclohex-3-en-1-yl]-5-oxo-pyrrolidine-2-carboxamide] | 200 to 1260
0.0398 to 0.316 | Cc1cccc(-c2[nH]cnc2-c2ccc3ncc(-c4ccnc(C(=O)O[C@@H]5CCNC5)c4)cc3c2)n1 [Compound 1050, [(3R)-pyrrolidin-3-yl] 4-[6-[5-(6-methyl-2-pyridyl)-1H-imidazol-4-yl]-3-quinolyl]pyridine-2-carboxylate] | 200 to 1260
< 0.0316 | CC(=O)N[C@@H]1CC=C(c2cnc3ccc(-c4nc[nH]c4-c4cccc(C)n4)cc3c2)CC1 [Compound 380, N-[(1S)-4-[6-[5-(6-methyl-2-pyridyl)-1H-imidazol-4-yl]-3-quinolyl]cyclohex-3-en-1-yl]acetamide] | < 20
0.398 to 3.16 | Cc1cccc(-c2[nH]cnc2-c2ccc3ncc(C(=O)O[C@@H]4CCN(C)C4)cc3c2)n1 [Compound 758, [(3R)-1-methylpyrrolidin-3-yl] 6-[5-(6-methyl-2-pyridyl)-1H-imidazol-4-yl]quinoline-3-carboxylate] | 25.1 to 158
0.0398 to 0.316 | Cc1cccc(-c2[nH]cnc2-c2ccc3ncc(-c4nc(C(=O)OCCN5CCNCC5)cs4)cc3c2)n1 [Compound 1145, 2-piperazin-1-ylethyl 2-[6-[5-(6-methyl-2-pyridyl)-1H-imidazol-4-yl]-3-quinolyl]thiazole-4-carboxylate] | 25.1 to 158
0.398 to 3.16 | CNCc1ccnc2ccc(-c3c[nH]nc3-c3cccc(C)n3)nc12 [Compound 829, N-methyl-1-[6-[3-(6-methyl-2-pyridyl)-1H-pyrazol-4-yl]-1,5-naphthyridin-4-yl]methanamine] | 25.1 to 158
0.0398 to 0.316 | Cc1nc(-c2n[nH]cc2-c2ccc3ncc(-c4cnn5c4CNCC5)cc3n2)ccc1F [Compound 185, 2-[3-(5-fluoro-6-methyl-2-pyridyl)-1H-pyrazol-4-yl]-7-(4,5,6,7-tetrahydropyrazolo[1,5-a]pyrazin-3-yl)-1,5-naphthyridine] | < 20
0.0398 to 0.316 | Cc1cccc(-c2[nH]cnc2-c2ccc3ncc(N4CCC(C(=O)O)CC4)cc3c2)n1 [Compound 213, 1-(6-(5-(6-methylpyridin-2-yl)-1H-imidazol-4-yl)quinolin-3-yl)piperidine-4-carboxylic acid] | 200 to 1260
0.398 to 3.16 | Cc1cccc(-c2[nH]nnc2-c2ccc3ncc(-c4c[nH]nc4C(F)(F)F)cc3n2)n1 [Compound 521, 2-[5-(6-methyl-2-pyridyl)-1H-triazol-4-yl]-7-[3-(trifluoromethyl)-1H-pyrazol-4-yl]-1,5-naphthyridine] | 25.1 to 158
< 0.0316 | Cc1nc(-c2n[nH]cc2-c2ccc3ncc(-c4cnn5c4NCC5)cc3n2)ccc1F [Compound 534, 7-(2,3-dihydro-1H-imidazo[1,2-b]pyrazol-7-yl)-2-[3-(5-fluoro-6-methyl-2-pyridyl)-1H-pyrazol-4-yl]-1,5-naphthyridine] | < 20
0.0398 to 0.316 | Cc1cccc(-c2[nH]cnc2-c2ccc3ncc(-c4ccc(C(=O)O[C@H]5CCN(C)C5)nc4)cc3c2)n1 [Compound 722, [(3S)-1-methylpyrrolidin-3-yl] 5-[6-[5-(6-methyl-2-pyridyl)-1H-imidazol-4-yl]-3-quinolyl]pyridine-2-carboxylate] | < 20
0.0398 to 0.316 | Cc1cccc(-c2n[nH]cc2-c2ccc3ncc(NC(=O)CN4CCN(C(C)C)CC4)cc3n2)n1 [Compound 625, 2-(4-isopropylpiperazin-1-yl)-N-[6-[3-(6-methyl-2-pyridyl)-1H-pyrazol-4-yl]-1,5-naphthyridin-3-yl]acetamide] | 25.1 to 158
0.0398 to 0.316 | Cc1cccc(-c2[nH]cnc2-c2ccc3ncc(C(=O)OC4CCCCNC4)cc3c2)n1 (centres unmarked) [Compound 773, azepan-3-yl 6-[5-(6-methyl-2-pyridyl)-1H-imidazol-4-yl]quinoline-3-carboxylate] | 25.1 to 158
0.0398 to 0.316 | Cc1nc(-c2n[nH]cc2-c2ccc3ncc(-c4cccn(C)c4=O)cc3n2)ccc1F [Compound 674, 3-[6-[3-(5-fluoro-6-methyl-2-pyridyl)-1H-pyrazol-4-yl]-1,5-naphthyridin-3-yl]-1-methyl-pyridin-2-one] | < 20
0.398 to 3.16 | Cc1cccc(-c2[nH]cnc2-c2ccc3ncc(C(=O)OCCN4CC5(CNC5)C4)cc3c2)n1 [Compound 894, 2-(2,6-diazaspiro[3.3]heptan-2-yl)ethyl 6-(5-(6-methylpyridin-2-yl)-1H-imidazol-4-yl)quinoline-3-carboxylate] | 200 to 1260
< 0.0316 | Cc1cccc(-c2[nH]cnc2-c2ccc3ncc(N4CC5(CCCNC5)C4)cc3c2)n1 [Compound 159, 3-(2,8-diazaspiro[3.5]nonan-2-yl)-6-[5-(6-methyl-2-pyridyl)-1H-imidazol-4-yl]quinoline] | < 20
< 0.0316 | Cc1cccc(-c2n[nH]cc2-c2ccc3ncc(C4=CCC(N)CC4)cc3n2)n1 (centres unmarked) [Compound 21, 4-[6-[3-(6-methyl-2-pyridyl)-1H-pyrazol-4-yl]-1,5-naphthyridin-3-yl]cyclohex-3-en-1-amine] | 25.1 to 158
0.398 to 3.16 | CN[C@H]1CC[C@@H](OC(=O)c2cnc3ccc(-c4nc[nH]c4-c4cccc(C)n4)cc3c2)CC1 [Compound 1071, [4-(methylamino)cyclohexyl] 6-[5-(6-methyl-2-pyridyl)-1H-imidazol-4-yl]quinoline-3-carboxylate] | 25.1 to 158
0.398 to 3.16 | Cc1nc(-c2nc3ccccn3c2-c2ccc3ncc(Br)cc3n2)ccc1F [Compound 453, 7-bromo-2-[2-(5-fluoro-6-methyl-2-pyridyl)imidazo[1,2-a]pyridin-3-yl]-1,5-naphthyridine] | 1580 to 10000
3.98 to 31.6 | Cc1cccc(-c2n[nH]cc2-c2ccc3ncc(CNC(C(=O)OC4CCCC4)c4ccccc4)cc3n2)n1 (centres unmarked) [Compound 684, cyclopentyl 2-[[6-[3-(6-methyl-2-pyridyl)-1H-pyrazol-4-yl]-1,5-naphthyridin-3-yl]methylamino]-2-phenyl-acetate] | 200 to 1260
0.0398 to 0.316 | Cc1cccc(-c2[nH]cnc2-c2ccc3ncc(-c4ccc5c(c4)CC[C@@H]5N)cc3c2)n1 [Compound 1056, (1S)-5-[6-[5-(6-methyl-2-pyridyl)-1H-imidazol-4-yl]-3-quinolyl]indan-1-amine] | 25.1 to 158
0.0398 to 0.316 | Cc1cccc(-c2[nH]cnc2-c2ccc3ncc(N4CCC(C(=O)OCC5CNC5)CC4)cc3c2)n1 [Compound 424, azetidin-3-ylmethyl 1-[6-[5-(6-methyl-2-pyridyl)-1H-imidazol-4-yl]-3-quinolyl]piperidine-4-carboxylate] | 200 to 1260
0.0398 to 0.316 | Cc1cccc(-c2[nH]ncc2-c2ccc3ncc(C(=O)OCCCC4CCNCC4)cc3c2)n1 [Compound 1182, 3-(4-piperidyl)propyl 6-[5-(6-methyl-2-pyridyl)-1H-pyrazol-4-yl]quinoline-3-carboxylate] | 25.1 to 158

SMILES | Ki [2] [nM] | IC50 [1] [nM]
Cc1cccc(-c2[nH]cnc2-c2ccc3ncc(-c4ncc(C5=CCNCC5)s4)cc3c2)n1 [Compound 1084, 2-[6-[5-(6-methyl-2-pyridyl)-1H-imidazol-4-yl]-3-quinolyl]-5-(1,2,3,6-tetrahydropyridin-4-yl)thiazole] | 0.0398 to 0.316 | < 20
